The test has as its target T1, DLL3 (Homo sapiens, UniProt Q9NYJ7).
T1 sequence (Q9NYJ7 27-618): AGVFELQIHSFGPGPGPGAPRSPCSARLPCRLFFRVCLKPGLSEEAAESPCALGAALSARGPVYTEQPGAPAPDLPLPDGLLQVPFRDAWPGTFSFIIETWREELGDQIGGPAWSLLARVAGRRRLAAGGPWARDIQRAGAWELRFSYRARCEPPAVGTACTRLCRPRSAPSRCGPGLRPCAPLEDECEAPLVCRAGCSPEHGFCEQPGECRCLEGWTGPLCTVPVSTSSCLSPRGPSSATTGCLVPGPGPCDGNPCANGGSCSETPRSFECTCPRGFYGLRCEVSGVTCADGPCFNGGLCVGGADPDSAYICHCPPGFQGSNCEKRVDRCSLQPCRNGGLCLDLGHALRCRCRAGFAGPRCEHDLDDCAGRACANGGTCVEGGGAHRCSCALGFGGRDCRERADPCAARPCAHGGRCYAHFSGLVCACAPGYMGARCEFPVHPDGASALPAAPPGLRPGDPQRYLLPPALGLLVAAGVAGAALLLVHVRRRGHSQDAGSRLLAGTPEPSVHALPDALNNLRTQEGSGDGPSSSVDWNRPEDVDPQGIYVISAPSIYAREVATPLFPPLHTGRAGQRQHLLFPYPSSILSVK
Description: SPR KD, biotinylated human DLL3 on streptavidin chip (Table 8). Also on record: biotin (biotinylated). The following applies: biotinylated human DLL3 on streptavidin sensor chip, 25° C., 1:1 binding model. From the text:
Biotinylated target ligand human DLL3 was immobilized on a streptavidin sensor chip. A reference surface was set up for nonspecific binding and refractive index changes. […] Sensorgram curves were fitted with 1:1 binding model, and affinity and kinetic parameters were obtained using Biacore Insight evaluation 4.0. software.

Like-named read-outs stand apart in the source and are kept apart here. *1 amine or outer side, *2 acyl side, *3 side chain or, on linkers, in order; H or OH if unused. Where a SMILES comes first, the peptide text is derived from it. Bridges are numbered along the chain shown (N, C = ends). Roman numbers before positions name the chains, in order. Side-chain parts run from the residue outwards. [ ]: non-standard residue; d: D form. The star is where a group is joined. X11 = O=C(O)CN1CCN(CC(=O)O)CCN(CC(=O)NCCCOCCOCCOCCCN*)CCN(CC(=O)O)CC1; Ala(piperidin-4-yl) = O=C([C@H](CC1CCN([*:3])CC1)N[*:1])[*:2]; DOTA = O=C(O)CN1CCN(CC(=O)O)CCN(CC(=O)*)CCN(CC(=O)O)CC1; X5 = O=C(Cc1ccc(Br)cc1)NCCOCCOCCOCCOCCOCCOCCOCCOCC(=O)*; X2 = O=C(Cc1ccc(I)cc1)NCCOCCOCCOCCOCCOCCOCCOCCOCC(=O)*; Trp(7-OMe) = COc1cccc2c(C[C@H](N)C(=O)O)c[nH]c12; Trp(7-Me) = Cc1cccc2c(C[C@H](N)C(=O)O)c[nH]c12; 2Nal = N[C@@H](Cc1ccc2ccccc2c1)C(=O)O; NMetBuAla = CN[C@@H](CC(C)(C)C)C(=O)O; tBuAla = CC(C)(C)C[C@H](N)C(=O)O; Chg = N[C@H](C(=O)O)C1CCCCC1; NMeNle = CCCC[C@H](NC)C(=O)O; Suc = O=C(CCC(=O)[*:2])[*:1]; CH2 = C([*:1])[*:2]

Usually Kd stands for the free concentration of one partner at which half of the binding sites on the other are occupied at equilibrium, for simple one-to-one binding. On to `CC(=O)N[C@@H](Cc1c[nH]c2ccccc12)C(=O)N[C@H](C(=O)N[C@H](C(=O)N[C@H]1CSSC[C@@H](C(=O)N[C@@H](Cc2c[nH]c3ccccc23)C(=O)N2CCC[C@H]2C(N)=O)NC(=O)[C@H](CC(=O)O)NC(=O)[C@H](CCCCNC(=O)CNC(=O)CNC(=O)CCC(=O)NCCCOCCOCCOCCCNC(=O)CN2CCN(CC(=O)O)CCN(CC(=O)O)CCN(CC(=O)O)CC2)NC(=O)[C@H](Cc2ccc3ccccc3c2)NC(=O)[C@H](CC(N)=O)NC(=O)[C@H](CC2CCNCC2)NC1=O)C1CCCCC1)[C@@H](C)O` [compound 406, Ac-W-T-(Chg)-C(3)-[3-(4-piperidinyl)-Ala]-N-(2Nal)-Lys(G-G-TTDS-DOTA)-D-C(3)-W-P-CONH2] (Ac-WT[Chg]C[Ala(piperidin-4-yl)]N[2Nal]K([Gly-Gly-Suc-X11])DCWP-NH2; disulfide 4-10), for which the equilibrium dissociation constant (Kd) (read-out: SPR KD) was below 1 nM.

On to `CC(=O)N[C@@H](Cc1c[nH]c2ccccc12)C(=O)N[C@H](C(=O)N[C@H](C(=O)N[C@H]1CSSC[C@@H](C(=O)N[C@@H](Cc2c[nH]c3ccccc23)C(=O)N2CCC[C@H]2C(N)=O)NC(=O)[C@H](CC(=O)O)NC(=O)[C@H](CCCCNC(=O)CNC(=O)[C@H](CO)NC(=O)CNC(=O)[C@H](CO)NC(=O)CNC(=O)[C@H](CO)NC(=O)CN2CCN(CC(=O)O)CCN(CC(=O)O)CCN(CC(=O)O)CC2)NC(=O)[C@H](Cc2ccc3ccccc3c2)NC(=O)[C@H](CC(N)=O)NC(=O)[C@H](CC2CCNCC2)NC1=O)C1CCCCC1)[C@@H](C)O` [compound 407, Ac-W-T-(Chg)-C(3)-[3-(4-piperidinyl)-Ala]-N-(2Nal)-Lys(G-S-G-S-G-S-DOTA)-D-C(3)-W-P-CONH2] (I: Ac-WT[Chg]C[Ala(piperidin-4-yl)]N[2Nal]KDCWP-NH2 / II: {DOTA}-SGSGSG; disulfide I:4-I:10; amide I:8-II:C), for which the Kd (SPR KD) is below 1 nM. In the case of `CCCC[C@@H](C(=O)N[C@H]1CSSC[C@@H](C(=O)N[C@@H](Cc2c[nH]c3ccccc23)C(=O)N2CCC[C@H]2C(N)=O)NC(=O)[C@H](CC(=O)O)NC(=O)[C@H](CCCCNC(=O)CN2CCN(CC(=O)O)CCN(CC(=O)O)CCN(CC(=O)O)CC2)NC(=O)[C@H](Cc2ccc3ccccc3c2)NC(=O)[C@H](CC(N)=O)NC(=O)[C@H](CC2CCNCC2)NC1=O)N(C)C(=O)[C@@H](NC(=O)[C@H](Cc1c[nH]c2c(C)cccc12)NC(C)=O)[C@@H](C)O` [compound 408, Ac-(7Me-Trp)-T-(NMe-Nle)-C(3)-[3-(4-piperidinyl)-Ala]-N-(2Nal)-Lys(DOTA)-D-C(3)-W-P-CONH2] (Ac-[Trp(7-Me)]T[NMeNle]C[Ala(piperidin-4-yl)]N[2Nal]K(DOTA)DCWP-NH2; disulfide 4-10), the Kd (read-out: SPR KD) was below 1 nM. As for `CC(=O)N[C@@H](Cc1c[nH]c2ccccc12)C(=O)N[C@H](C(=O)N[C@H](C(=O)N[C@H]1CSCSC[C@@H](C(=O)N[C@@H](Cc2c[nH]c3ccccc23)C(=O)N2CCC[C@H]2C(N)=O)NC(=O)[C@H](C)NC(=O)[C@H](CCCCNC(=O)CN2CCN(CC(=O)O)CCN(CC(=O)O)CCN(CC(=O)O)CC2)NC(=O)[C@H](Cc2ccc3ccccc3c2)NC(=O)[C@H](CC(N)=O)NC(=O)[C@H](CC2CCNCC2)NC1=O)C1CCCCC1)[C@@H](C)O` [compound 416, Ac-W-T-(Chg)-C(1)-[3-(4-piperidinyl)-Ala]-N-(2Nal)-Lys(DOTA)-(Ala)-C(1)-W-P-CONH2] (Ac-WT[Chg]C[Ala(piperidin-4-yl)]N[2Nal]K(DOTA)ACWP-NH2; linker 4-10 via CH2), the Kd (read-out: SPR KD) is below 1 nM.

As to `CC(=O)N[C@@H](Cc1c[nH]c2ccccc12)C(=O)N[C@H](C(=O)N[C@H](C(=O)N[C@H]1CSCSC[C@@H](C(=O)N[C@@H](Cc2c[nH]c3ccccc23)C(=O)N2CCC[C@H]2C(=O)N[C@H](CCCCNC(=O)COCCOCCOCCOCCOCCOCCOCCOCCNC(=O)Cc2ccc(Br)cc2)C(N)=O)NC(=O)[C@H](CC(=O)O)NC(=O)[C@H](CCCCNC(=O)CN2CCN(CC(=O)O)CCN(CC(=O)O)CCN(CC(=O)O)CC2)NC(=O)[C@H](Cc2ccc3ccccc3c2)NC(=O)[C@H](CC(N)=O)NC(=O)[C@H](CC2CCNCC2)NC1=O)C1CCCCC1)[C@@H](C)O` [compound 418] (Ac-WT[Chg]C[Ala(piperidin-4-yl)]N[2Nal]K(DOTA)DCWP[dK](X5)-NH2; linker 4-10 via CH2), where the note is “read-out: SPR KD”, the Kd was below 1 nM. In the case of `CC(=O)N[C@@H](Cc1c[nH]c2ccccc12)C(=O)N[C@H](C(=O)N(C)[C@@H](CC(C)(C)C)C(=O)N[C@H]1CSSC[C@@H](C(=O)N[C@@H](Cc2c[nH]c3ccccc23)C(=O)N2CCC[C@H]2C(N)=O)NC(=O)[C@H](CC(=O)O)NC(=O)[C@H](CCCCNC(=O)CN2CCN(CC(=O)O)CCN(CC(=O)O)CCN(CC(=O)O)CC2)NC(=O)[C@H](Cc2ccc3ccccc3c2)NC(=O)[C@H](CC(N)=O)NC(=O)[C@H](CC2CCNCC2)NC1=O)[C@@H](C)O` [compound 419, Ac-W-T-(NMe-tBuAla)-C(3)-[3-(4piperdinyl)-Ala]-N-(2Nal)-Lys(DOTA)-D-C(3)-W-P-CONH2] (Ac-WT[NMetBuAla]C[Ala(piperidin-4-yl)]N[2Nal]K(DOTA)DCWP-NH2; disulfide 4-10), the dissociation constant (Kd) (read-out: SPR KD) was below 1 nM. The compound `CC(=O)N[C@@H](Cc1c[nH]c2ccccc12)C(=O)N[C@H](C(=O)N[C@H](C(=O)N[C@H]1CSSC[C@@H](C(=O)N[C@@H](Cc2c[nH]c3ccccc23)C(=O)N2CCC[C@H]2C(=O)N[C@H](CCCCNC(=O)COCCOCCOCCOCCOCCOCCOCCOCCNC(=O)Cc2ccc(I)cc2)C(N)=O)NC(=O)[C@H](CC(=O)O)NC(=O)[C@H](CCCCNC(=O)CN2CCN(CC(=O)O)CCN(CC(=O)O)CCN(CC(=O)O)CC2)NC(=O)[C@H](Cc2ccc3ccccc3c2)NC(=O)[C@H](CC(N)=O)NC(=O)[C@H](CC2CCNCC2)NC1=O)C1CCCCC1)[C@@H](C)O` [compound 420] (Ac-WT[Chg]C[Ala(piperidin-4-yl)]N[2Nal]K(DOTA)DCWP[dK](X2)-NH2; disulfide 4-10) displayed a Kd (SPR KD) below 1 nM. `CC(=O)N[C@@H](Cc1c[nH]c2ccccc12)C(=O)N[C@H](C(=O)N[C@H](C(=O)N[C@H]1CSSC[C@@H](C(=O)N[C@@H](Cc2c[nH]c3ccccc23)C(=O)N2CCC[C@H]2C(=O)N[C@H](CCCCNC(=O)COCCOCCOCCOCCOCCOCCOCCOCCNC(=O)Cc2ccc(Br)cc2)C(N)=O)NC(=O)[C@H](CC(=O)O)NC(=O)[C@H](CCCCNC(=O)CN2CCN(CC(=O)O)CCN(CC(=O)O)CCN(CC(=O)O)CC2)NC(=O)[C@H](Cc2ccc3ccccc3c2)NC(=O)[C@H](CC(N)=O)NC(=O)[C@H](CC2CCNCC2)NC1=O)C1CCCCC1)[C@@H](C)O` [compound 421] (Ac-WT[Chg]C[Ala(piperidin-4-yl)]N[2Nal]K(DOTA)DCWP[dK](X5)-NH2; disulfide 4-10) came in with a dissociation constant Kd (SPR KD) below 1 nM.

Regarding `CCCC[C@@H](C(=O)N[C@H]1CSSC[C@@H](C(=O)N[C@@H](Cc2c[nH]c3ccccc23)C(=O)N2CCC[C@H]2C(N)=O)NC(=O)[C@H](CC(=O)O)NC(=O)[C@H](CCCCNC(=O)CN2CCN(CC(=O)O)CCN(CC(=O)O)CCN(CC(=O)O)CC2)NC(=O)[C@H](Cc2ccc3ccccc3c2)NC(=O)[C@H](CC(N)=O)NC(=O)[C@H](CC2CCNCC2)NC1=O)N(C)C(=O)[C@@H](NC(=O)[C@H](Cc1c[nH]c2c(OC)cccc12)NC(C)=O)[C@@H](C)O` [compound 422, Ac-(7MeO-Trp)-T-(NMe-Nle)-C(3)-[3-(4piperdinyl)-Ala]-N-(2Nal)-Lys(DOTA)-D-C(3)-W-P-CONH2] (Ac-[Trp(7-OMe)]T[NMeNle]C[Ala(piperidin-4-yl)]N[2Nal]K(DOTA)DCWP-NH2; disulfide 4-10), for the setting “read-out: SPR KD”, the dissociation constant (Kd) is below 1 nM. As to `CC(=O)N[C@H](Cc1c[nH]c2ccccc12)C(=O)N[C@@H](C(=O)N[C@@H](CC(C)(C)C)C(=O)N[C@@H]1CSCSC[C@@H](C(=O)N[C@@H](Cc2c[nH]c3ccccc23)C(=O)N2CCC[C@H]2C(N)=O)NC(=O)[C@H](CC(=O)O)NC(=O)[C@H](CCCCNC(=O)CN2CCN(CC(=O)O)CCN(CC(=O)O)CCN(CC(=O)O)CC2)NC(=O)[C@H](Cc2ccc3ccccc3c2)NC(=O)[C@H](CC(N)=O)NC(=O)[C@H](CC(N)=O)NC1=O)[C@H](C)O` [compound 423, Ac-W-T-(t-Bu-Ala)-[D-Cys(1)]-N-N-(2Nal)-Lys(DOTA)-D-C(1)-W-P-CONH2] (Ac-[dW][dT][tBuAla][dC]NN[2Nal]K(DOTA)DCWP-NH2; linker 4-10 via CH2), the Kd (read-out: SPR KD) lay within 100 to 300 nM.

Take `CC(=O)N[C@H](Cc1c[nH]c2ccccc12)C(=O)N[C@@H](C(=O)N[C@@H](CC(C)(C)C)C(=O)N[C@H]1CSCSC[C@H](C(=O)N[C@@H](Cc2c[nH]c3ccccc23)C(=O)N2CCC[C@H]2C(N)=O)NC(=O)[C@H](CC(=O)O)NC(=O)[C@H](CCCCNC(=O)CN2CCN(CC(=O)O)CCN(CC(=O)O)CCN(CC(=O)O)CC2)NC(=O)[C@H](Cc2ccc3ccccc3c2)NC(=O)[C@H](CC(N)=O)NC(=O)[C@H](CC(N)=O)NC1=O)[C@H](C)O` [compound 424, Ac-W-T-(t-Bu-Ala)-C(1)-N-N-(2Nal)-Lys(DOTA)-D-[D-Cys(1)]-W-P-CONH2] (Ac-[dW][dT][tBuAla]CNN[2Nal]K(DOTA)D[dC]WP-NH2; linker 4-10 via CH2): the dissociation constant Kd (read-out: SPR KD) was below 1 nM.

For the origin of these results see patent US20250049970A1, “DLL3 TARGETING PEPTIDES AND CONSTRUCTS THEREOF” (MARIANA ONCOLOGY INC., priority 2023, published 2025).
